Measured values published in US10695337B2, “Piperidin-4-yl azetidine derivatives as JAK1 inhibitors” (Incyte Corporation, priority 2010, dated 2020).

Target: human JAK1 (a.a. 837-1142)
Assay: In vitro JAK kinase assay (HTRF, phosphorylation of a biotinylated peptide), JAK1
Type: biochemical
Settings: measured at 1 mM ATP; JAK2 IC50 / JAK1 IC50
Procedure: Compounds herein were tested for inhibitory activity of JAK targets according to the following in vitro assay described in Park et al., Analytical Biochemistry 1999, 269, 94-104. The catalytic domains of human JAK1 (a.a. 837-1142), Jak2 (a.a. 828-1132) and Jak3 (a.a. 781-1124) with an N-terminal His tag were expressed using baculovirus in insect cells and purified. The catalytic activity of JAK1, JAK2 or JAK3 was assayed by measuring the phosphorylation of a biotinylated peptide. The phosphorylated peptide was detected by homogenous time resolved fluorescence (HTRF). […] Reactions were carried out at room temperature for 1 hr and then stopped with 20 μL 45 mM EDTA, 300 nM SA-APC, 6 nM Eu-Py20 in assay buffer (Perkin Elmer, Boston, Mass.). Binding to the Europium labeled antibody took place for 40 minutes and HTRF signal was measured on a Fusion plate reader (Perkin Elmer, Boston, Mass.).

Structure (SMILES) | IC50 Ratio JAK2/JAK1
N#CCC1(n2cc(-c3ncnc4[nH]ccc34)cn2)CN(C2CCN(C(=O)c3cc(F)cc(Br)c3)CC2)C1 [Example 29, {1-[1-(3-bromo-5-fluorobenzoyl)piperidin-4-yl]-3-[4-(7H-pyrrolo[2,3-d]pyrimidin-4-yl)-1H-pyrazol-1-yl]azetidin-3-yl}acetonitrile] | 7.2
COc1c(F)c(F)cc(C(=O)N2CCC(N3CC(CC#N)(n4cc(-c5ncnc6[nH]ccc56)cn4)C3)CC2)c1F [Example 32, {3-[4-(7H-pyrrolo[2,3-d]pyrimidin-4-yl)-1H-pyrazol-1-yl]-1-[1-(2,4,5-trifluoro-3-methoxybenzoyl)piperidin-4-yl]azetidin-3-yl}acetonitrile] | 4.4
COc1cc(OC)cc(C(=O)N2CCC(N3CC(CC#N)(n4cc(-c5ncnc6[nH]ccc56)cn4)C3)CC2)c1 [Example 33, {1-[1-(3,5-dimethoxybenzoyl)piperidin-4-yl]-3-[4-(7H-pyrrolo[2,3-d]pyrimidin-4-yl)-1H-pyrazol-1-yl]azetidin-3-yl}acetonitrile] | 0.5
N#CCC1(n2cc(-c3ncnc4[nH]ccc34)cn2)CN(C2CCN(C(=O)c3ccc(F)c(F)c3)CC2)C1 [Example 35, {1-[1-(3,4-difluorobenzoyl)piperidin-4-yl]-3-[4-(7H-pyrrolo[2,3-d]pyrimidin-4-yl)-1H-pyrazol-1-yl]azetidin-3-yl}acetonitrile] | 6.9
COc1cc(F)cc(C(=O)N2CCC(N3CC(CC#N)(n4cc(-c5ncnc6[nH]ccc56)cn4)C3)CC2)c1 [Example 36, {1-[1-(3-fluoro-5-methoxybenzoyl)piperidin-4-yl]-3-[4-(7H-pyrrolo[2,3-d]pyrimidin-4-yl)-1H-pyrazol-1-yl]azetidin-3-yl}acetonitrile] | 2.3

Continued, values first:

IC50 Ratio JAK2/JAK1 | Structure (SMILES)
2.8 | N#CCC1(n2cc(-c3ncnc4[nH]ccc34)cn2)CN(C2CCN(C(=O)c3cc(Cl)sc3Cl)CC2)C1 [Example 30, {1-{1-[(2,5-dichloro-3-thienyl)carbonyl]piperidin-4-yl}-3-[4-(7H-pyrrolo[2,3-d]pyrimidin-4-yl)-1H-pyrazol-1-yl]azetidin-3-yl}acetonitrile]
1.9 | COc1cccc(C(=O)N2CCC(N3CC(CC#N)(n4cc(-c5ncnc6[nH]ccc56)cn4)C3)CC2)c1 [Example 31, {1-[1-(3-methoxybenzoyl)piperidin-4-yl]-3-[4-(7H-pyrrolo[2,3-d]pyrimidin-4-yl)-1H-pyrazol-1-yl]azetidin-3-yl}acetonitrile]
6.0 | N#CCC1(n2cc(-c3ncnc4[nH]ccc34)cn2)CN(C2CCN(C(=O)c3ccc(F)c(Cl)c3)CC2)C1 [Example 34, {1-[1-(3-chloro-4-fluorobenzoyl)piperidin-4-yl]-3-[4-(7H-pyrrolo[2,3-d]pyrimidin-4-yl)-1H-pyrazol-1-yl]azetidin-3-yl}acetonitrile]
2.1 | COc1cc(C(=O)N2CCC(N3CC(CC#N)(n4cc(-c5ncnc6[nH]ccc56)cn4)C3)CC2)cc(Cl)n1 [Example 37, {1-[1-(2-chloro-6-methoxyisonicotinoyl)piperidin-4-yl]-3-[4-(7H-pyrrolo[2,3-d]pyrimidin-4-yl)-1H-pyrazol-1-yl]azetidin-3-yl}acetonitrile]
5.7 | COc1ccc(F)cc1C(=O)N1CCC(N2CC(CC#N)(n3cc(-c4ncnc5[nH]ccc45)cn3)C2)CC1 [Example 38, {1-[1-(5-fluoro-2-methoxybenzoyl)piperidin-4-yl]-3-[4-(7H-pyrrolo[2,3-d]pyrimidin-4-yl)-1H-pyrazol-1-yl]azetidin-3-yl}acetonitrile]
3.2 | COc1cccc(F)c1C(=O)N1CCC(N2CC(CC#N)(n3cc(-c4ncnc5[nH]ccc45)cn3)C2)CC1 [Example 39, {1-[1-(2-fluoro-6-methoxybenzoyl)piperidin-4-yl]-3-[4-(7H-pyrrolo[2,3-d]pyrimidin-4-yl)-1H-pyrazol-1-yl]azetidin-3-yl}acetonitrile]
